Measured values as given in patent publication US20250144107A1, “USE OF A PIKFYVE INHIBITOR IN COMBINATION WITH IMMUNOTHERAPY” (The Regents of the University of Michigan, priority 2023, published 2025).

Key:
[1] = system: immune cells enriched from spleens; assay: Immune cells from spleens of non-tumor-bearing mice; format: in vivo
Protocol: FIG. 13A is a box and whisker plot of relative median fluorescent intensity of surface XCR1 in CD45^+ cells of splenic DCs in PIKfyve inhibitor-treated non-tumor-bearing mice.
FIG. 13B is a box and whisker plot of cDC1 cells from spleens of mice treated with vehicle or apilimod, 30 mg/kg daily, after 5 days of treatment.
FIG. 18A is a series of nine scatter plots of the gating strategy for CD69^+ effector, naïve, terminally differentiated, resident memory, central memory, and exhausted CD8^+ T cells from spleens of non-tumor-bearing mice treated with vehicle or apilimod, 30 mg/kg daily, after 5 days of treatment.
FIG. 18H is a series of nine scatter plots of the gating strategy for FIG. 13A-B and FIG. 18I for myeloid cells and cDCs.

[2] = system: syngeneic pancreatic tumors established with orthotopic injection of KPC1361 cells; assay: Orthotopic KPC1361 pancreatic tumor model with anti-PD-1; format: in vivo, mice; conditions: apilimod 60 mg/kg, ESK981 30 mg/kg oral gavage
Excerpt: FIG. 8B is a line graph of the efficacy of α-PD1 in combination with apilimod or ESK981 against pancreatic tumors from orthotopically injected KPC1361 cells to mice.
FIG. 8C (Left) is a line graph of flow cytometry measuring surface expression of MHC-I on GPF-labelled cancer cells in pancreatic tumors treated with α-PD1 in combination with apilimod or ESK981; (Right) is a bar graph of quantification of flow cytometry measuring surface expression of MHC-I on GPF-labelled cancer cells in pancreatic tumors treated with α-PD1 in combination with apilimod or ESK981.
FIG. 8D (left) is a series of 3 images of flow cytometry measuring the amount of total CD8^+ T cells, and proportion of activated or proliferative CD8^+ T cells in pancreatic tumors treated with α-PD1 in combination with apilimod or ESK981; (Right) are bar graphs of flow cytometry quantification of the amount of total CD8^+ T cells, and proportion of activated or proliferative CD8^+ T cells in pancreatic tumors treated with α-PD1 in combination with apilimod or ESK981.
FIG. 9A is a line graph of the survival of pancreatic tumor bearing mice, orthotopically injected with KPC1361 cells and treated with an immune checkpoint inhibitor, apilimod, or ESK981 individually, or in combination with each other.
All experimental protocols were conducted after approval by the U-M Institutional Animal Care & Use Committee. […] KPC1361 cells were resuspended in PBS, 1:1 (v/v) mixed with Matrigel (BD Biosciences; catalog #: 354248), and orthotopically injected to the pancreases at 250,000 cells in a total volume of 50 μl per injection. B16-F10 cells were resuspended in PBS and injected subcutaneously to both flanks at 400,000 cells per injection. For ACT study, B16-F10-OVA cells were resuspended in PBS and injected subcutaneously to both flanks at 300,000 cells per injection. For lung metastasis experiment, B16-BL6 cells were resuspended in PBS, 1:1 (v/v) mixed with Matrigel and injected subcutaneously to both flanks at 400,000 cells per injection. Fifteen days after tumor cell inoculation, the primary tumors were removed surgically under anesthesia. Thirty-five days after removal of the primary tumors, lung tissues were extracted and fixed, and lung metastasis was quantified. C57BL/6 mice were acquired from The Jackson Laboratory. Measurement of tumor volume began 5-9 days post tumor cell implantation and was performed 2-3 times per week using calipers. Volume measurements of pancreatic tumors were also achieved with calipers, as reported See, e.g., Koikawa, K. et al., Cell 2021; 184(18):4753-4771. In brief, mice were subjected to anesthesia with 2-3% isoflurane, and the abdominal wall then became soft and loose. […] Volume (mm^3) of tumor was calculated using (W^2×L)/2, where W stood for minor tumor axis and L for the major. […]

subcutaneous MC38 tumors = assay: Subcutaneous MC38 tumor model; format: in vivo, mice
Protocol: FIG. 16A is a line graph of the subcutaneous tumor volume of MC38 tumors in mice treated with vehicle or apilimod, 30 mg/kg×5 days/week.
FIG. 16B is a series of two scatter plots of the percent IFNγ^+ of CD8^+ T cells in vehicle or apilimod-treated MC38 tumors.
FIG. 16C is a line graph of the subcutaneous tumor volume of MC38 tumors in mice treated with vehicle versus apilimod, 30 mg/kg×5 days/week, in wild-type or Batf3^−/− mice.
FIG. 26A is a bar graph of the percent IFNγ^+ of CD8^+ T cells in vehicle or apilimod-treated, 30 mg/kg×5 days/week MC38 tumors.
FIG. 26B is a line graph of the subcutaneous tumor volume of MC38 tumors treated with vehicle versus apilimod, 30 mg/kg×5 days/week, in NSG™ mice.
FIG. 26C is a line graph of the subcutaneous tumor volume of MC38 tumors in mice treated with vehicle versus apilimod, 30 mg/kg×5 days/week, and additionally treated with IgG2a or αIL-12p40 blocking antibody.
FIG. 26D is a line graph of the subcutaneous tumor volume of MC38 tumors in mice treated with vehicle versus apilimod, 30 mg/kg×5 days/week, and additionally treated with IgG1 or αIFNγ blocking antibody.

[3] = 30 mg/kg daily, 5 days, vs vehicle

## Cc1cccc(/C=N/Nc2cc(N3CCOCC3)nc(OCCc3ccccn3)n2)c1 [apilimod, N-[(E)-(3-methylphenyl)methylideneamino]-6-morpholin-4-yl-2-(2-pyridin-2-ylethoxy)pyrimidin-4-amine]
[1]; [3]
  percentage of terminally differentiated, memory or exhausted CD8+ T cells: no changes
  proportions of CD69+CD8+ T cells: increased
  total surface expression of CD11c, F4/80, or CD11b: no change
  total surface expression of XCR1: increase
[1]; within the cDC subset
  relative percentage of cDC1s versus cDC2 cells: increase
[2]
  intratumoral activated CD8+ T cells: increase
  tumor-specific MHC-I surface expression: upregulation
Subcutaneous MC38 tumors; Batf3−/− vs WT mice
  efficacy in Batf3−/− mice: loss of apilimod efficacy
Subcutaneous MC38 tumors; WT mice
  percentage of intratumoral IFNγ+CD8+ T cells: increased
Subcutaneous MC38 tumors; WT mice, 30 mg/kg x 5 days/week, vs vehicle
  MC38 tumor growth: reduced
Subcutaneous MC38 tumors; immune-deficient NSG mice
  efficacy in NSG mice: lost
Subcutaneous MC38 tumors; vs isotype control
  efficacy with neutralizing antibody against IFNγ: reduced
  efficacy with neutralizing antibody against IL-12: reduced

## CC(C)Cn1c2ccc(Nc3ncccn3)cc2c2c3c(c4c(c21)CCc1nn(C)cc1-4)C(=O)NC3 [ESK981, 13-isobutyl-4-methyl-10-(pyrimidin-2-ylamino)-1,2,4,7,8,13-hexahydro-6H-indazolo[5,4-a]pyrrolo[3,4-c]carbazol-6-one]
[2]
  intratumoral activated CD8+ T cells: increase
  tumor-specific MHC-I surface expression: upregulation
